Data published in patent US5849587A, “Method of inhibiting viral replication in eukaryotic cells and of inducing apoptosis of virally-infected cells” (Cornell Research Foundation, Inc., priority 1995, dated 1998).

Assays:
Deoxyhypusyl hydroxylase = target: T1, Deoxyhypusyl hydroxylase (Homo sapiens, UniProt Q9BU89); assay: Cellular deoxyhypusyl hydroxylase (hypusine formation) inhibition, human B-cells and human smooth muscle cells; format: cell-based; settings: concentration for half-maximal inhibition
T1 construct: endogenous in cells
T1 sequence (Q9BU89 1-302): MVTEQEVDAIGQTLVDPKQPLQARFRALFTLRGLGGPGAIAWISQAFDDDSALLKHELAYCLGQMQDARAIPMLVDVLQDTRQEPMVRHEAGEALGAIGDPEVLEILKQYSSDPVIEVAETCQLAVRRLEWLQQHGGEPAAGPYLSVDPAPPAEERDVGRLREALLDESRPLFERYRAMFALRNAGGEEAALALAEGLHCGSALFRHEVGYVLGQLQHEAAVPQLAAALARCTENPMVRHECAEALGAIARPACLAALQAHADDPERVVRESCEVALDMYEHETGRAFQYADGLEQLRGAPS
Method: (§1) The cell-free enzyme assay was performed to test a pilot peptidomimetic which can be equipped with hydroxypyridone warheads. The cell culture studies were performed to establish the inherent inhibitory potency of such hydroxypyridones.
DOHH Assay. The intracellular conversion of peptide-bound deoxyhypusine to peptidyl hypusine was determined after preincubation of human T lymphocyte-derived cells (i.e. ACH-2) [Clouse et al., J. Immunol. 142, 431-438 (1989), which is hereby incorporated by reference] with the hypusine inhibitors mimosine and HK-1 for 60 minutes, followed by labeling for 21 hours with ^3 H-spermidine (3.75 μCi/ml) in wells containing 3×10^6 cells suspended in 8 ml of serum-supplemented and antibiotic-containing RPMI 1640 medium. Cells were then split into two groups, one of them being harvested immediately to assess degree of DOHH inhibition, and the other harvested after transfer of the cells into inhibitor-free medium for 2 hours to measure resumption of DOHH activity. Harvesting consisted in precipitation of washed cells with 10% TCA containing 1 mM each of putrescine, spermidine, and spermine. Cellular proteins from each sample were then hydrolyzed in 6N HCl at 110° C. for 16 hours. The hydrolysate was analyzed for labeled amino acids on an amino acid analyzer by published methods [Park et al., J. Biol. Chem., 257, 7217-7222 (1982), which is hereby incorporated by reference]. The retention times of hypusine and deoxyhypusine were determined from standards. Similar studies were performed in human B-cells and human smooth muscle cells.
The concentration required for half-maximal inhibition (ID50) of the cellular enzyme activity is identified for each compound.

[1] = test system: deoxyhypusyl hydroxylase (DOHH); assay: Cell-free DOHH assay with purified enzyme and unhydroxylated eIF-5A precursor; format: biochemical; settings: purified rat enzyme, unhydroxylated eIF-5A, FIG. 4B
Method: The graph gives the chromatographic profile of metabolically labeled hypusine/deoxyhypusine obtained after incubation of the purified rat enzyme with unhydroxylated eIF-5A in the absence (open squares) and presence (closed squares) of mimetic III. […] Peptides of appropriate structure or peptidomimetics like mimetic III can serve as "carriers" for a reactive moiety termed "warhead" that, by virture of its attachment to the carrier, becomes precisely oriented to interact optimally with the active site metal ion of DOHH. In the case of mimetic III, such a warhead moiety can be attached at the site indicated by the asterisk in FIG. 4A.
as §1
DOHH Assay. Enzyme activity was purified and determined, as described by Abbruzzese et al., J Biol Chem 261:3085-9 (1986), which is hereby incorporated by reference. Briefly, the enzyme is offered as labeled deoxyhypusine-containing eIF-5A precursor, and, following standard incubation conditions, the conversion into hypusine residues is measured by chromatographic amino acid separation of the hydrolyzed proteins. […] Biophys. Acta, 1221, 115-124 (1994), which is hereby incorporated by reference]. […]

SMILES | Deoxyhypusyl hydroxylase ID50 (cellular) (Deoxyhypusyl hydroxylase) | deoxyhypusine-to-hypusine conversion in presence of compound [1] | deoxyhypusine-to-hypusine conversion in presence of compound ([1]; listed as mimetic of Formula III)
CCc1c(O)c(=O)ccn1CC [HK-2] | 50 | – | –
COCCn1ccc(=O)c(O)c1C [HK-15] | 60 | – | –
NC(CO)C1CCC(=O)NC(CO)C(=O)N(C(Cc2ccccc2)C(=O)O)NC1=O (stereo not shown) [mimetic III] | – | clearly reduced | the deoxyhypusine-to-hypusine conversion was suppressed
CCn1ccc(=O)c(O)c1C [HK-26] | 58 | – | –
CCCn1ccc(=O)c(O)c1C [HK-27] | 50 | – | –
C=CCn1ccc(=O)c(O)c1C [HK-16] | 50 | – | –
